{"source": "paper PMC10433847", "about": "“The Plasmodium Lactate/H^+ Transporter PfFNT Is Essential and Druggable In Vivo” (Antimicrobial Agents and Chemotherapy, 2023)", "key": {"P. berghei": {"tested_on": "P. berghei", "experiment": "4-day Peters' test, P. berghei-infected mouse malaria model", "assay_type": "in vivo", "conditions": "for Activity (%) / Survival / Parasite-free mice (n/total): once per day on 4 consecutive days", "description": "Finally, we tested BH267.meta in vivo in a P. berghei-infected mouse malaria model. For comparison, we included the established antimalarials chloroquine, mefloquine, and artesunate in the assay. Efficacy was determined by a 4-day Peters’ test ([20], [21]) after oral administration of 30, 10, and 3 mg kg^−1 day^−1 for each antimalarial for four consecutive days. At 4 × 3 mg kg^−1 treatment with BH267.meta, parasitemia was at 0.2% after 4 days, while doses of 10 mg kg^−1 and higher decreased the parasitemia below the limit of quantitation (LOQ) of 0.1%. […] Artesunate yielded lower activity at 4 × 3 mg kg^−1. The average survival after BH267.meta treatment was similar to that after artesunate treatment and ranged from 8.0 d (3 mg kg^−1) to 13.0 d (30 mg kg^−1) due to recurring parasitemia (Table 1).\n(§1) In vivo efficacy of BH267.meta against P. berghei was determined as previously described ([20], [21]). Mice were infected with a GFP-transfected P. berghei ANKA strain (donated by A. P. Waters and C. J. Janse, Leiden University, Leiden, The Netherlands), and parasitemia was determined using standard flow cytometry techniques. The detection limit was 0.1%, i.e., 1 parasite in 1,000 erythrocytes. Activity was calculated as the difference between the mean parasitemia for the control and treated groups (n = 3, each) expressed relative to the control group. BH267.meta was dissolved (3 mg kg ^−1 doses) or suspended (all higher doses) in 70/30 Tween 80/ethanol, diluted 10-fold with water, and administered orally as four consecutive daily doses (4, 24, 48, and 72 h after infection). […] different doses of BH267.meta were analyzed (30, 10, and 3 mg kg ^−1). In vivo efficacy against P. falciparum was conducted at The Art of Discovery, Derio, Spain according to the standard assay previously described ([22], [23]). Animal experiments against P. berghei were carried out at the Swiss Tropical and Public Health Institute and adhered to local and national regulations of laboratory animal welfare in Switzerland (awarded permission no. 1731). Protocols are regularly reviewed and revised following approval by the local authority (Veterinäramt Basel Stadt)."}, "[1]": {"tested_on": "P. falciparum parasites with PfFNT G21E mutation", "experiment": "EC50 determination by flow cytometry, drug-selected parasites with PfFNT G21E", "assay_type": "cell-based, Plasmodium falciparum", "conditions": "parasites with G21E amino acid change vs 3D7 wild-type", "description": "(§2) P. falciparum parasites, 3D7, were cultured in RPMI 1640 medium supplemented with 0.5% Albumax with 0+ erythrocytes (University Medical Center Hamburg-Eppendorf, Hamburg, Germany) at a 5% hematocrit at 37°C in an atmosphere containing 5% CO2, 1% O2, and 94% N2 under standard conditions ([31]). To obtain resistant parasites, 50 mL of parasite culture, starting with 5 × 10^8 to 6 × 10^8 parasites, were exposed to 3 × IC50 of either MMV007839 or BH267.meta until parasitemia was established again (around 2 weeks). For sequencing of the fnt gene, genomic DNA from the susceptible and resistant P. falciparum parasite lines was obtained from 5 mL of culture using the QIAamp DNA minikit (Qiagen, Hilden, Germany). The primer sequences used to sequence the entire fnt gene are available in Table S2. To determine the EC50, asynchronous parasites (0.5% to 1% starting parasitemia) were exposed to serial dilutions of the drug and grown for 2 days with one change of medium (including the appropriate concentration of drug), after which the parasitemia was determined using an LSR II FACS (BD Biosciences, Franklin Lakes, NJ) as previously described ([32]). The data were analyzed in GraphPad Prism to determine EC50 values."}, "P. falciparum": {"tested_on": "P. falciparum", "experiment": "P. falciparum SCID mouse model", "assay_type": "in vivo", "conditions": "50 mg kg−1 d−1 oral for four consecutive days, single animal; LOQ 0.01%", "description": "In addition to the P. berghei efficacy assessment, we also evaluated BH267.meta in a P. falciparum severe combined immunodeficient (SCID) mouse model as previously described ([22], [23]). Efficacy was assessed following administration of 50 mg kg^−1 d^−1 for four consecutive days to a single animal (Fig. 7).\nas §1, with “Animal experiments against P. berghei were carried out at the Swiss Tropical and Public Health Institute and adhered to local and national regulations of laboratory animal welfare in Switzerland (awarded permission no. 1731). Protocols are regularly reviewed and revised following approval by the local authority (Veterinäramt Basel Stadt).” left out"}, "[2]": {"tested_on": "P. falciparum 3D7 blood stages", "experiment": "Stage-specific action of BH267.meta on synchronized parasites", "assay_type": "cell-based, Plasmodium falciparum", "conditions": "IC90 of BH267.meta added at ring, trophozoite or schizont stage", "description": "Asynchronous cultures containing ~2% schizonts were purified using a 60% Percoll gradient and split into 4 tubes containing […] fresh blood and culture medium, shaken at 37°C for 30 min at 800 rpm to permit newly released merozoites to invade red blood cells, and then transferred into four 5-mL culture dishes. […] The cultures were maintained with daily medium changes and replenishment of IC90 BH267.meta when drug treatment had already commenced for a culture. Giemsa smear and flow cytometry were performed as described previously ([32]), and samples were taken at regular intervals (daily or every 12 h)."}, "[3]": {"tested_on": "P. falciparum parasite culture", "parameters": "method as in PMID 32816478", "conditions": "read-out: effectiveness in parasite culture; cited from earlier work"}, "[4]": {"tested_on": "P. falciparum parasites with PfFNT V196L mutation", "experiment": "EC50 determination by flow cytometry, drug-selected parasites with PfFNT V196L", "assay_type": "cell-based, Plasmodium falciparum", "conditions": "V196L mutation vs 3D7 wild-type", "description": "as §2"}}, "data": [{"smiles": "C[C@H]1[C@H](OC(=O)CCC(=O)O)O[C@@H]2O[C@@]3(C)CC[C@H]4[C@H](C)CC[C@@H]1[C@@]24OO3", "note": "[Artesunate, artesunate]", "values": [{"measurement": "Activity (%)", "setting": "P. berghei; 3 mg kg−1 day−1 oral", "value": 85.0, "unit": "%"}, {"measurement": "Survival", "setting": "P. berghei; 3 mg kg−1 day−1 oral", "value": 8.8, "unit": "days"}, {"measurement": "Activity (%)", "setting": "P. berghei; 10 mg kg−1 day−1 oral", "value": 99.1, "unit": "%"}, {"measurement": "Survival", "setting": "P. berghei; 10 mg kg−1 day−1 oral", "value": 8.1, "unit": "days"}, {"measurement": "Activity (%)", "setting": "P. berghei; 30 mg kg−1 day−1 oral", "value": 99.0, "unit": "%"}, {"measurement": "Survival", "setting": "P. berghei; 30 mg kg−1 day−1 oral", "value": 9.2, "unit": "days"}]}, {"smiles": "O=C(/C=C(\\O)C(F)(F)C(F)(F)F)c1cccnc1", "note": "[BH267.meta]", "values": [{"measurement": "reduction in sensitivity compared to the 3D7 parasites", "setting": "[1]", "value": "no alteration in the response"}, {"measurement": "Activity (%)", "setting": "P. berghei; 3 mg kg−1 day−1 oral", "value": 99.7, "unit": "%"}, {"measurement": "Survival", "setting": "P. berghei; 3 mg kg−1 day−1 oral", "value": 8.0, "unit": "days"}, {"measurement": "Activity (%)", "setting": "P. berghei; 10 mg kg−1 day−1 oral", "value": 99.9, "unit": "%"}, {"measurement": "Survival", "setting": "P. berghei; 10 mg kg−1 day−1 oral", "value": 10.7, "unit": "days"}, {"measurement": "Activity (%)", "setting": "P. berghei; 30 mg kg−1 day−1 oral", "value": 99.8, "unit": "%"}, {"measurement": "Survival", "setting": "P. berghei; 30 mg kg−1 day−1 oral", "value": 13.0, "unit": "days"}, {"measurement": "parasitemia after 4 days", "setting": "P. berghei; 4 × 3 mg kg−1 oral", "value": 0.2, "unit": "%"}, {"measurement": "efficacy", "setting": "P. berghei; all tested doses (30, 10, 3 mg kg−1 day−1, 4 days oral)", "value": "≥ 99.7", "unit": "%"}, {"measurement": "parasitemia", "setting": "P. berghei; doses of 10 mg kg−1 and higher, 4 days oral, LOQ 0.1%", "value": "< 0.1", "unit": "%"}, {"measurement": "symptoms or side effects elicited by the compound", "setting": "P. berghei; mice under treatment, 3-30 mg kg−1 day−1 oral for 4 days", "value": "free of symptoms or side effects"}, {"measurement": "activity in mice", "setting": "P. berghei; mouse malaria models", "value": "> 99", "unit": "%"}, {"measurement": "parasitemia", "setting": "P. falciparum", "value": "< 0.01", "unit": "%"}, {"measurement": "blood stage affected", "setting": "[2]", "value": "specifically affects the trophozoite stage"}, {"measurement": "EC50", "setting": "[3]", "value": 240, "unit": "nM"}]}, {"smiles": "COc1ccc(C(=O)/C=C(\\O)C(F)(F)C(F)(F)F)cc1", "note": "[BH296]", "values": [{"measurement": "reduction in sensitivity compared to the 3D7 parasites", "setting": "[1]", "value": 3.0, "unit": "fold"}, {"measurement": "fold increased IC50", "setting": "[4]", "value": 7.4, "unit": "fold"}]}, {"smiles": "CCN(CC)CCCC(C)Nc1ccnc2cc(Cl)ccc12", "note": "(centres unmarked) [Chloroquine, chloroquine]", "values": [{"measurement": "Activity (%)", "setting": "P. berghei; 3 mg kg−1 day−1 oral", "value": 99.0, "unit": "%"}, {"measurement": "Survival", "setting": "P. berghei; 3 mg kg−1 day−1 oral", "value": 11.0, "unit": "days"}, {"measurement": "Activity (%)", "setting": "P. berghei; 10 mg kg−1 day−1 oral", "value": 99.9, "unit": "%"}, {"measurement": "Survival", "setting": "P. berghei; 10 mg kg−1 day−1 oral", "value": 15.5, "unit": "days"}, {"measurement": "Activity (%)", "setting": "P. berghei; 30 mg kg−1 day−1 oral", "value": 99.9, "unit": "%"}, {"measurement": "Survival", "setting": "P. berghei; 30 mg kg−1 day−1 oral", "value": 21.2, "unit": "days"}]}, {"smiles": "COc1ccc2c(c1)OC(O)(C(F)(F)C(F)(F)F)CC2=O", "note": "(centres unmarked) [MMV007839]", "values": [{"measurement": "reduction in sensitivity compared to the 3D7 parasites", "setting": "[1]", "value": 8.4, "unit": "fold"}]}, {"smiles": "OC(c1cc(C(F)(F)F)nc2c(C(F)(F)F)cccc12)C1CCCCN1", "note": "(centres unmarked) [Mefloquine, mefloquine]", "values": [{"measurement": "Activity (%)", "setting": "P. berghei; 3 mg kg−1 day−1 oral", "value": 93.0, "unit": "%"}, {"measurement": "Survival", "setting": "P. berghei; 3 mg kg−1 day−1 oral", "value": 13.0, "unit": "days"}, {"measurement": "Activity (%)", "setting": "P. berghei; 10 mg kg−1 day−1 oral", "value": 99.9, "unit": "%"}, {"measurement": "Parasite-free mice (n/total)", "setting": "P. berghei; 10 mg kg−1 day−1 oral", "value": "1/5"}, {"measurement": "Survival", "setting": "P. berghei; 10 mg kg−1 day−1 oral", "value": 21.0, "unit": "days"}, {"measurement": "Activity (%)", "setting": "P. berghei; 30 mg kg−1 day−1 oral", "value": 99.9, "unit": "%"}, {"measurement": "Parasite-free mice (n/total)", "setting": "P. berghei; 30 mg kg−1 day−1 oral", "value": "4/5"}, {"measurement": "Survival", "setting": "P. berghei; 30 mg kg−1 day−1 oral", "value": 29.1, "unit": "days"}]}]}
